Measured values reported in ChEMBL document CHEMBL5108019, “Discovery of a novel Pleuromutilin derivative as anti-IPF lead compound via high-throughput assay” (Eur J Med Chem, 2022).
The source made the active and inactive calls. The rule behind the calls is not given here.

Tests used:
[1] = Toxicity in C57BL/6 mouse assessed as toxic symptoms at 500 mg/kg, po administered once every day for 30 days; assay type: organism-based; conditions: in vivo, 720 h, time 30 day
[2] = Inhibition of TGF-beta1 induced cell proliferation in mouse MLg cells measured after 24 hrs by MTT assay; assay type: functional, cell-based
Mus musculus [3] = assay: Antifibrotic activity against BLM-induced pulmonary fibrosis in C57BL/6 mouse model assessed as improvement in dynamic compliance at 200 mg/kg, po administered once daily starting from day 7 post BLM treatment and measured on day 14 by plethysmography chamber based pulmonary function analysis; assay type: functional; conditions: time 14 day
[4] = Half life in Sprague-Dawley rat at 10 mg/kg, iv measured for 12 hrs by LC-MS/MS analysis; assay type: ADME, organism-based; conditions: in vivo
Bacillus subtilis = assay: Antibacterial activity against Bacillus subtilis assessed as bacterial growth inhibition incubated for 24 hrs; assay type: functional
[5] = Toxicity in C57BL/6 mouse assessed as animal survival at 500 mg/kg, IG administered once every day for 7 days; assay type: organism-based; conditions: in vivo, po, 168 h, time 7 day
Mus musculus [6] = assay: Antifibrotic activity against BLM-induced pulmonary fibrosis in C57BL/6 mouse model assessed as reduction in collagen content in lungs at 100 to 200 mg/kg, po administered once daily starting from day 7 post BLM treatment and measured on day 14 by hydroxyproline method; assay type: functional, organism-based; conditions: dose 100-200 mg/kg, time 14.0 day
[7] = Toxicity in C57BL/6 mouse assessed as animal survival at 1000 mg/kg, IG administered as single dose; assay type: organism-based; conditions: in vivo, po
Pulmonary fibroblast [8] = assay: Inhibition of TGF-beta1 induced cell stimulation in mouse pulmonary fibroblast cells assessed as reduction in alpha-SMA protein expression at 10 to 40 uM incubated for 24 hrs by Western blot analysis; assay type: functional, cell-based; conditions: dose 10-40 µM
[9] = biological target: Mothers against decapentaplegic homolog 3 (Mus musculus) (UniProt Q8BUN5); assay: Inhibition of TGF-beta1 induced Smad3 phosphorylation in mouse pulmonary fibroblast cells at 10 to 40 uM incubated for 0.5 hrs by Western blot analysis; assay type: cell-based; conditions: dose 10-40 µM
Mothers against decapentaplegic homolog 3 (Mus musculus), sequence (Q8BUN5 whole entry, looked up): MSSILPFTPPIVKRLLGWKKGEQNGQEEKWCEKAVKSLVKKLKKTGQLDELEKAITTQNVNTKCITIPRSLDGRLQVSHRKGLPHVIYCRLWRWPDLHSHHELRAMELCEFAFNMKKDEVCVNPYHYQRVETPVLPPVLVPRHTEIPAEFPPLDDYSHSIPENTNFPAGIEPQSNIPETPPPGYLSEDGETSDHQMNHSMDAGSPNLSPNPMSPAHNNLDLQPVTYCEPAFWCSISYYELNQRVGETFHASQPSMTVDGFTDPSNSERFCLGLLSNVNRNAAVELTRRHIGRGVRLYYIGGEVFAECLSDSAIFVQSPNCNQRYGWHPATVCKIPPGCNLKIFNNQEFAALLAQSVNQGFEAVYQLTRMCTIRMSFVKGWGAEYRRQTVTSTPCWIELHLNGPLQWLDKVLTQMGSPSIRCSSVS

Mus musculus [10] = assay: Antifibrotic activity against BLM-induced pulmonary fibrosis in C57BL/6 mouse model assessed as improvement in inspiratory resistance at 200 mg/kg, po administered once daily starting from day 7 post BLM treatment and measured on day 14 by plethysmography chamber based pulmonary function analysis; assay type: functional; conditions: time 14 day
Mus musculus [11] = assay: Antifibrotic activity against BLM-induced pulmonary fibrosis in C57BL/6 mouse model assessed as improvement in pulmonary alveolar structure damage at 100 to 200 mg/kg, po administered once daily starting from day 7 post BLM treatment and measured on day 14 by H and E staining based analysis; assay type: functional, organism-based; conditions: dose 100-200 mg/kg, time 14.0 day
[12] = Cmax in Sprague-Dawley rat at 10 mg/kg, iv measured for 12 hrs by LC-MS/MS analysis; assay type: ADME, organism-based; parameters: dose 10 mg/kg, time 12 hrs, route iv; conditions: in vivo
Mus musculus [13] = assay: Antifibrotic activity against BLM-induced pulmonary fibrosis in C57BL/6 mouse model assessed as improvement in expiratory resistance at 200 mg/kg, po administered once daily starting from day 7 post BLM treatment and measured on day 14 by plethysmography chamber based pulmonary function analysis; assay type: functional, organism-based; conditions: time 14.0 day
[14] = Oral bioavailability in Sprague-Dawley rat at 100 mg/kg measured for 18 hrs by LC-MS/MS analysis; assay type: ADME, organism-based; conditions: in vivo
Mus musculus [15] = assay: Antifibrotic activity against BLM-induced pulmonary fibrosis in C57BL/6 mouse model assessed as improvement in forced vital capacity at 200 mg/kg, po administered once daily starting from day 7 post BLM treatment and measured on day 14 by plethysmography chamber based pulmonary function analysis; assay type: functional; conditions: time 14 day
[16] = Tmax in Sprague-Dawley rat at 10 mg/kg, iv measured for 12 hrs by LC-MS/MS analysis; assay type: ADME, organism-based; conditions: in vivo
[17] = Clearance in Sprague-Dawley rat at 10 mg/kg, iv measured for 12 hrs by LC-MS/MS analysis; assay type: ADME, organism-based; conditions: in vivo
Mus musculus [18] = assay: Antifibrotic activity against BLM-induced pulmonary fibrosis in C57BL/6 mouse model assessed as reduction in extracellular matrix generation at 200 mg/kg, po administered once daily starting from day 7 post BLM treatment and measured on day 14 by hydroxyproline method; assay type: functional, organism-based; conditions: time 14.0 day
[19] = Cmax in Sprague-Dawley rat at 100 mg/kg, po measured for 18 hrs by LC-MS/MS analysis; assay type: ADME, organism-based; parameters: dose 100 mg/kg, time 18 hrs, route po; conditions: in vivo
Mus musculus [20] = assay: Antifibrotic activity against BLM-induced pulmonary fibrosis in C57BL/6 mouse model assessed as reduction in fibrosis region at 100 mg/kg, po administered once daily starting from day 7 post BLM treatment and measured on day 14 by hematoxylin-eosin and Masson trichrome staining based analysis relative to control; assay type: functional, organism-based; conditions: time 14.0 day
[21] = Clearance in Sprague-Dawley rat at 100 mg/kg, po measured for 18 hrs by LC-MS/MS analysis; assay type: ADME, organism-based; conditions: in vivo
Staphylococcus aureus = assay: Antibacterial activity against Staphylococcus aureus assessed as bacterial growth inhibition incubated for 24 hrs; assay type: functional
[22] = Tmax in Sprague-Dawley rat at 100 mg/kg, po measured for 18 hrs by LC-MS/MS analysis; assay type: ADME, organism-based; conditions: in vivo
[23] = biological target: Transforming growth factor beta-1 proprotein/Mothers against decapentaplegic homolog 3 (Mus musculus) (UniProt P04202+Q8BUN5); assay: Inhibition of TGF-beta1/Smad3 signalling in TGF-beta1 treated mouse NIH3T3 cells transfected with (CAGA)12-Lux reporter gene assessed as suppressive ratio at 10 uM incubated for 18 hrs by luciferase based analysis relative to control; assay type: cell-based; parameters: scale not given: the % may be the effect or the level left
Transforming growth factor beta-1 proprotein/Mothers against decapentaplegic homolog 3 (Mus musculus), sequence (P04202 279-390 limits assumed): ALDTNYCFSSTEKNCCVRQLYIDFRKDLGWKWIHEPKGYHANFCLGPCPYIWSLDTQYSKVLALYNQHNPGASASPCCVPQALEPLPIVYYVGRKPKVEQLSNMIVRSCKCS
Transforming growth factor beta-1 proprotein/Mothers against decapentaplegic homolog 3 (Mus musculus), sequence (Q8BUN5 2-425 partner limits assumed): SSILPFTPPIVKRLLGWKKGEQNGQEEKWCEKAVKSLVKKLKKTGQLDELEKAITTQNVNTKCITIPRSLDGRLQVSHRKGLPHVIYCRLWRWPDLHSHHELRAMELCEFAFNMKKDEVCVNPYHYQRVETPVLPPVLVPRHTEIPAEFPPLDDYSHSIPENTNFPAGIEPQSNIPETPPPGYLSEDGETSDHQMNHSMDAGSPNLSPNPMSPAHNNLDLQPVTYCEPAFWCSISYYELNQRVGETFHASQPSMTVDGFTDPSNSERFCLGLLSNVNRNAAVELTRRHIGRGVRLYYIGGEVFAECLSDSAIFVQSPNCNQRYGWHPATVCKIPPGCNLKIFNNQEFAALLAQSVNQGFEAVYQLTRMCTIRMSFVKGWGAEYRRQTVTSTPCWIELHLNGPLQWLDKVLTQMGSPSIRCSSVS

[24] = AUC (0 to t) in Sprague-Dawley rat at 100 mg/kg, po measured for 18 hrs by LC-MS/MS analysis; assay type: ADME, organism-based; parameters: dose 100 mg/kg, time 18 hrs, route po; conditions: in vivo
[25] = Half life in Sprague-Dawley rat at 100 mg/kg, po measured for 18 hrs by LC-MS/MS analysis; assay type: ADME, organism-based; conditions: in vivo
Mus musculus [26] = assay: Antifibrotic activity against BLM-induced pulmonary fibrosis in C57BL/6 mouse model assessed as reduction in fibrosis region at 200 mg/kg, po administered once daily starting from day 7 post BLM treatment and measured on day 14 by hematoxylin-eosin and Masson trichrome staining based analysis relative to control; assay type: functional, organism-based; conditions: time 14.0 day
[27] = AUC (0 to t) in Sprague-Dawley rat at 10 mg/kg, iv measured for 12 hrs by LC-MS/MS analysis; assay type: ADME, organism-based; parameters: dose 10 mg/kg, time 12 hrs, route iv; conditions: in vivo
[28] = Toxicity in C57BL/6 mouse assessed as animal survival at 500 mg/kg, po administered once every day for 30 days; assay type: organism-based; conditions: in vivo, 720 h, time 30 day
Escherichia coli = assay: Antibacterial activity against Escherichia coli assessed as bacterial growth inhibition incubated for 24 hrs; assay type: functional
Pulmonary fibroblast [29] = assay: Inhibition of TGF-beta1 induced extracellular matrix development in mouse pulmonary fibroblast cells assessed as reduction in alpha-SMA mRNA expression at 10 to 40 uM incubated for 24 hrs by RT-PCR analysis; assay type: functional, cell-based; conditions: dose 10-40 µM
[30] = biological target: Transforming growth factor beta-1 proprotein/Mothers against decapentaplegic homolog 3 (Mus musculus, UniProt P04202+Q8BUN5); assay: Inhibition of TGF-beta1/Smad3 signalling in TGF-beta1 treated mouse NIH3T3 cells transfected with (CAGA)12-Lux reporter gene incubated for 18 hrs by luciferase based analysis; assay type: cell-based
Transforming growth factor beta-1 proprotein/Mothers against decapentaplegic homolog 3, sequence (P04202 279-390 limits assumed): as the sequence (P04202 279-390 limits assumed) above
Transforming growth factor beta-1 proprotein/Mothers against decapentaplegic homolog 3, sequence (Q8BUN5 2-425 limits assumed): as the sequence (Q8BUN5 2-425 partner limits assumed) above

## C=C[C@]1(C)C[C@@H](O)[C@]2(C)[C@H](C)CC[C@]3(C/C(=C\c4ccc(C(=O)NC5CCCCC5)cc4)C(=O)[C@H]32)[C@@H](C)[C@@H]1O
[1]
  Activity: Non-Toxic
[2]
  IC50: 160 µM
Mus musculus [3]
  Activity: 38.85%
[4]
  half-life: 0.488 h
Bacillus subtilis
  MIC: > 1000 µg/mL
[5]
  Activity: Non-Toxic
Mus musculus [6]
  Activity: Active
[7]
  Activity: Non-Toxic
Pulmonary fibroblast [8]
  inhibition: Active
[9]
  inhibition: Active
Mus musculus [10]
  Activity: 51.03%
Mus musculus [11]
  Activity: Active
[12]
  Cmax: 2270 ng/mL
Mus musculus [13]
  Activity: Active
[14]
  bioavailability: 61.2%
Mus musculus [15]
  Activity: 76.47%
[16]
  Tmax: 39.6 s
[17]
  clearance: 27.1 mL/min
Mus musculus [18]
  Activity: Active
[19]
  Cmax: 2160 ng/mL
Mus musculus [20]
  Activity: Active
[21]
  CL/F: 7.62 mL/min
Staphylococcus aureus
  MIC: > 1000 µg/mL
[22]
  Tmax: 3.33 h
[23]
  Activity: 58.4%
[24]
  AUC(0-t) at 18 h: 17800 ng·h/mL
[25]
  half-life: 9.21 h
Mus musculus [26]
  Activity: Active
[27]
  AUC(0-t) at 12 h: 2900 ng·h/mL
[28]
  Activity: Non-Toxic
Escherichia coli
  MIC: > 1000 µg/mL
Pulmonary fibroblast [29]
  inhibition: Active
[30]
  IC50: 60.3 µM
